Measurements taken from PMC8960621, “Solution speciation and human serum protein binding of indium(III) complexes of 8-hydroxyquinoline, deferiprone and maltol” (Journal of Biological Inorganic Chemistry, 2022).
Where “and” joins values, the source holds several entries; their conditions need not be identical. Equal entries are not always repeated.

What was measured:
HSA and Tf = assay: Complex - HSA - Tf ternary systems (three-dimensional fluorescence and UV-vis); assay type: binding, human; details: pH 7.40; for metal ion Tf bound: 10 μM complex, HSA 5.2 equiv., Tf 0.32 equiv.; for dissociation of the complex: 212 μM HSA and 12.8 μM Tf (ratio 1:21.2:1.28)
Experimental: The reliability of UV–vis and fluorescence spectroscopic techniques in the characterization of the mode of interaction of In(III) complexes with HSA and (apo)Tf was proven in the former sections. Therefore, as a continuation three-dimensional fluorescence and UV–vis spectra were recorded for InQ3 and GaQ3 in the presence of both HSA and Tf (Figs. 7 and S7).
In these experiments, the applied HSA-to-Tf ratio corresponds to their physiological ratio in blood serum (630:38). Figure 8 depicts the intensity changes of the ternary system (complex and both proteins) for InQ3 at λEX = 367 nm and λEM = 530 nm in comparison to the respective binary systems (complex and only one type of protein). Apparently, albumin binding of the complex is indeed achieved in the ternary system, although to a lower extent compared to the InQ3 – HSA binary system, and the Tf binding of In(III) becomes more significant at higher protein concentrations. Consequently, the measured intensity reduces parallel with the decreasing (free and albumin bound) InQ3 concentration. […] Based on these spectra, InQ3 and GaQ3 are at least partly HSA-bound. However, minor dissociation of the complexes is evidenced by the UV–vis spectra (Fig. S7) even at this ratio that is more advanced for InQ3 than for GaQ3 (ca. 30% and 10% metal ion is Tf bound, respectively). The differences between the two complexes become more pronounced by getting closer to the physiologically relevant protein concentrations. In the presence of 212 μM HSA and 12.8 μM Tf (ratio: 1:21.2:1.28), the fluorescence of InQ3 is diminished, as most of the complex decomposes and In(III) is bound to Tf. […] To mimic the blood protein concentrations, three-times higher values would be needed; however, under that conditions fluorometric detection becomes inadequate due to the too high absorbance and light scattering of the samples.
Three-dimensional spectra were recorded for ternary systems containing InQ3 or GaQ3, HSA and Tf in the wavelength range λEX = 250 – 450 nm and λEM = 300 – 700 nm. All three-dimensional spectra were corrected by residual fluorescence of the proteins, inner filter effect and self-absorbance.

[1] = molecular target: T1, human serum albumin (HSA) (Homo sapiens, UniProt P02768); assay: HSA binding by steady-state spectrofluorometry (complex fluorescence and Trp-214 quenching)
T1 construct: purchased Sigma-Aldrich A8763
Source text: The effect of HSA on the intrinsic fluorescence of InQ3 and InD3 was studied. Similarly to GaQ3 and tris(8-hydroxy-quinolinato)Al(III), InQ3 and InD3 are also fluorescent metal complexes (see Table 2 for λmax values). […] The fluorescence intensity of InQ3 increased in the presence of HSA, and emission intensity values measured at 530 nm show a saturation character plotted against the added HSA equivalents. […] At the same time, UV–vis absorbance spectra of InQ3 are only slightly altered by the binding interaction. Enhanced fluorescence of InQ3, and fast binding kinetics confirm the binding of the non-dissociated metal complex to the protein via intermolecular interactions. Fluorometric data can be excellently fitted with the computer program PSEQUAD [43] assuming a single site model (see Fig. 3), and a conditional binding constant of log K′ = 5.0 ± 0.1 was calculated for the HSA – InQ3 adduct. This constant indicates a moderate affinity of the complex on HSA.
Binding at the site I hydrophobic pocket of HSA can be followed via the selective excitation (λEX = 295 nm) of the single Trp (Trp-214) located close to this site. Trp-214 is sensitive to the binding events taking place at or near this site. The InQ3 complex quenched effectively the fluorescence of HSA, and a quenching constant (K’Q) could be computed based on the measured spectra: log K’Q = 5.1 ± 0.1.
Fluorescence studies were implemented by a Fluoromax (Horiba Jobin Yvon) fluorometer in 1 cm quartz cells. Samples contained 1 μM HSA or (apo)Tf and various protein-to-metal complex (or InCl3) ratios (up to complex/HSA = 1:30) were used. The excitation wavelength was 295 nm and 280 nm for HSA and Tf binding studies, respectively; emission intensity was registered between 300 and 450 nm. Intrinsic fluorescence of complex InQ3 was also followed at λEX = 367 nm, and λEM = 450 – 650 nm. In this setup, the complex concentration was ca. 10 or 20 μM, and protein (HSA, (apo)Tf) concentration was varied between 0 and 130 μM, and residual fluorescence of the proteins were subtracted if it was necessary. […] Computer program PSEQUAD [43] was utilized for the calculation of binding constants (K’) for HSA – InQ3 adducts similar to the approach described in our former works. Calculations were always based on data obtained from at least two independent measurements.

T1 sequence (P02768 25-609): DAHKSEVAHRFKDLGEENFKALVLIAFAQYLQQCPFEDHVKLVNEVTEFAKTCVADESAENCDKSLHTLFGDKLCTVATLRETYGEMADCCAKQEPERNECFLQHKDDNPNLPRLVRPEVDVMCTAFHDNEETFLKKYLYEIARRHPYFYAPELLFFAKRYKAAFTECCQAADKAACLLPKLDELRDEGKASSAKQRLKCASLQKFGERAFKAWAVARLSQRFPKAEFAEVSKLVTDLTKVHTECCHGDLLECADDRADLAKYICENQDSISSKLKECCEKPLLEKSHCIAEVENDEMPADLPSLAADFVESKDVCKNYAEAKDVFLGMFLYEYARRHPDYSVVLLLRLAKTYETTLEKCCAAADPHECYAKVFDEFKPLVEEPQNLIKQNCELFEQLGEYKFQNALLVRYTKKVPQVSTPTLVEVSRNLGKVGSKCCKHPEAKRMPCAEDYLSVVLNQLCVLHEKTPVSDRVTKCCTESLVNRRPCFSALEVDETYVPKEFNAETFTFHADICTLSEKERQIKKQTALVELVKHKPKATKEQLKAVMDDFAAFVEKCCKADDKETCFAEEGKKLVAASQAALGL

SMILES | metal ion Tf bound (HSA and Tf) | dissociation of the complex (HSA and Tf) | binding on HSA (fluorescence intensities additive) ([1]; fluorometry, pH 7.40) | log K’Q (quenching constant) ([1]; Trp-214 quenching, λEX = 295 nm, pH 7.40) | time of the interaction with HSA ([1]; fluorometry) | log K′ (conditional binding constant, HSA adduct) ([1]; fluorometry of the complex, single site model, pH 7.40, 25 °C)
[Ga+3].[O-]c1cccc2cccnc12.[O-]c1cccc2cccnc12.[O-]c1cccc2cccnc12 [GaQ3, Tris(8-Quinolinolato)gallium(III), reference compound] | ~10% | 25% |  |  |  | 
Cc1c([O-])c(=O)ccn1C.Cc1c([O-])c(=O)ccn1C.Cc1c([O-])c(=O)ccn1C.[In+3] [InD3] |  |  | no considerable binding |  |  | 
[In+3].[O-]c1cccc2cccnc12.[O-]c1cccc2cccnc12.[O-]c1cccc2cccnc12 [InQ3, Tris(8-Quinolinolato)indium(III)] | ca. 30% | practically completely dissociated |  | 5.1 ± 0.1 | within a few seconds | 5.0–5.1 and 5.0 ± 0.1
